Values joined by “and” are separate entries in the source; they are usually repeats but may differ in a detail not shown here. Identical values can stand only once.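 Assay format: 96-well plates, 48-hour exposure. At the GI50, growth is halved. The concentration for full growth arrest is given as TGI.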
Assays:
Test in all cases: NCI tumour cell line growth inhibition, 48 h
[1] = tested on: M19-MEL melanoma
[2] = tested on: HT29 colon
[3] = tested on: P388 leukemia
[4] = tested on: DLD-1 colon
[5] = tested on: EKVX NSCLC
[6] = tested on: NCI-H226 lung
[7] = tested on: HCT-15 colon
[8] = tested on: SN12C renal
[9] = tested on: HCC-2998 colon
[10] = tested on: CAKI-1 renal
[11] = tested on: NCI-H522 lung
[12] = tested on: XF 498 CNS
[13] = tested on: NCI-H460 lung
[14] = tested on: SNB-78 CNS
[15] = tested on: SK-MEL-5 melanoma
[16] = tested on: A549 NSCLC
[17] = tested on: OVCAR-4 ovarian
[18] = tested on: HOP-18 NSCLC
[19] = tested on: HOP-92 NSCLC
[20] = tested on: SNB-75 CNS
[21] = tested on: IGROV1 ovarian
[22] = tested on: A498 renal
[23] = tested on: COLO 205 colon
[24] = tested on: OVCAR-3 ovarian
[25] = tested on: SW-620 colon
[26] = tested on: RPMI-8226 leukemia
[27] = tested on: SNB-19 CNS
[28] = tested on: NCI/ADR-RES ovarian
[29] = tested on: HL-60(TB) leukemia
[30] = tested on: KM12 colon
[31] = tested on: RXF 393 renal
[32] = tested on: SF-268 CNS
[33] = tested on: SK-MEL-2 melanoma
[34] = tested on: K-562 leukemia
[35] = tested on: UO-31 renal
[36] = tested on: SN12K1 renal
[37] = tested on: MCF7 breast
[38] = tested on: MOLT-4 leukemia
[39] = tested on: CCRF-CEM leukemia
[40] = tested on: MALME-3M melanoma
[41] = tested on: SF-295 CNS
[42] = tested on: SK-OV-3 ovarian
[43] = tested on: P388/ADR leukemia
[44] = tested on: OVCAR-5 ovarian
[45] = tested on: LOX IMVI melanoma
[46] = tested on: OVCAR-8 ovarian
[47] = tested on: SF-539 CNS
[48] = tested on: HCT-116 colon
[49] = tested on: HOP-62 NSCLC
[50] = tested on: DMS 273 small cell lung
[51] = tested on: NCI-H23 lung
[52] = tested on: KM20L2 colon
[53] = tested on: UACC-62 melanoma
[54] = tested on: U251 CNS
[55] = tested on: UACC-257 melanoma
[56] = tested on: SK-MEL-28 melanoma

How did the TGI [1] turn out when `COc1cc(/C=C(\C#N)C(N)=O)cc(Br)c1O` was run?
Its TGI is over 100 µM.

And the TGI [2]?
Its TGI is over 100 µM.

What about the GI50 [3] of the same compound?
Its GI50 is 85.3 µM and 44.5 µM.

What about the TGI [3] of the same compound?
The TGI was over 100 µM.

What about the TGI [4] of the same compound?
Its TGI is over 100 µM.

What about the GI50 [5] of the same compound?
Its GI50 is 45.8 µM and > 100 µM.

And the TGI [5]?
Its TGI is over 100 µM.

What about the TGI [6] of the same compound?
Its TGI is over 100 µM.

And the TGI [7]?
The TGI was over 100 µM.

What about the GI50 [8] of the same compound?
Its GI50 is > 100 µM and 34 µM.

And the TGI [8]?
Its TGI is over 100 µM.

And the TGI [9]?
Its TGI is over 100 µM.

And the TGI [10]?
The TGI was over 100 µM.

What about the GI50 [11] of the same compound?
The GI50 was 15.7 µM and 28.9 µM.

What about the TGI [11] of the same compound?
The TGI was 35.4 µM and 87.3 µM.

And the TGI [12]?
Its TGI is over 100 µM.

And the TGI [13]?
Its TGI is over 100 µM.

And the TGI [14]?
Its TGI is over 100 µM.

What about the TGI [15] of the same compound?
The TGI was over 100 µM.

And the TGI [16]?
The TGI was over 100 µM.

And the TGI [17]?
Its TGI is over 100 µM.

And the TGI [18]?
The TGI was over 100 µM.

What about the GI50 [19] of the same compound?
The GI50 was 21.8 µM and > 100 µM.

And the TGI [19]?
Its TGI is 93.3 µM and > 100 µM.

What about the TGI [20] of the same compound?
The TGI was 14.4 µM and > 100 µM.

And the TGI [21]?
Its TGI is over 100 µM.

And the GI50 [22]?
The GI50 was > 100 µM and 60.3 µM.

What about the TGI [22] of the same compound?
The TGI was over 100 µM.

And the GI50 [23]?
Its GI50 is 73.8 µM and > 100 µM.

And the TGI [23]?
The TGI was over 100 µM.

And the TGI [24]?
The TGI was over 100 µM.

And the TGI [25]?
Its TGI is over 100 µM.

And the TGI [26]?
The TGI was over 100 µM.

And the TGI [27]?
The TGI was over 100 µM.

What about the TGI [28] of the same compound?
The TGI was over 100 µM.

And the GI50 [29]?
The GI50 was 83.8 µM and 59.8 µM.

And the TGI [29]?
Its TGI is over 100 µM.

And the TGI [30]?
The TGI was over 100 µM.

What about the TGI [31] of the same compound?
Its TGI is over 100 µM.

What about the TGI [32] of the same compound?
Its TGI is over 100 µM.

And the TGI [33]?
Its TGI is over 100 µM.

What about the GI50 [34] of the same compound?
Its GI50 is 32.1 µM and 43.2 µM.

And the TGI [34]?
Its TGI is over 100 µM.

What about the TGI [35] of the same compound?
The TGI was over 100 µM.

What about the TGI [36] of the same compound?
Its TGI is over 100 µM.

And the TGI [37]?
The TGI was over 100 µM.

And the TGI [38]?
Its TGI is over 100 µM.

What about the TGI [39] of the same compound?
Its TGI is over 100 µM.

What about the TGI [40] of the same compound?
The TGI was over 100 µM.

And the TGI [41]?
Its TGI is over 100 µM.

What about the TGI [42] of the same compound?
The TGI was over 100 µM.

And the TGI [43]?
Its TGI is over 100 µM.

And the TGI [44]?
Its TGI is over 100 µM.

What about the TGI [45] of the same compound?
The TGI was 59.2 µM and > 100 µM.

And the TGI [46]?
The TGI was over 100 µM.

What about the TGI [47] of the same compound?
Its TGI is over 100 µM.

What about the TGI [48] of the same compound?
The TGI was over 100 µM.

What about the TGI [49] of the same compound?
Its TGI is over 100 µM.

What about the TGI [50] of the same compound?
The TGI was over 100 µM.

What about the GI50 [51] of the same compound?
Its GI50 is 43 µM and > 100 µM.

What about the TGI [51] of the same compound?
Its TGI is over 100 µM.

What about the TGI [52] of the same compound?
The TGI was over 100 µM.

What about the GI50 [53] of the same compound?
The GI50 was 35.9 µM and > 100 µM.

What about the TGI [53] of the same compound?
The TGI was over 100 µM.

And the TGI [54]?
The TGI was over 100 µM.

What about the TGI [55] of the same compound?
The TGI was over 100 µM.

And the TGI [56]?
Its TGI is over 100 µM.
